Test systems include COLO 205; HCT-15; HOP-62; HOP-92; HT-29; K562; KM12; LXFL 529; NCI-H23; NCI-H460; SF-268; SK-MEL-2; SK-MEL-5; SK-OV-3; SN12C; SR; SW-620; UACC-62; MDA-MB-231; T47D.
Holding throughout (assay): NCI anticancer screen, dose series, 48 h

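Dose response: 5 concentrations. Exposure: 48 h. Format: 96-well plates. Endpoint: linear interpolation; highest concentration if not reached. Abbreviation: GI50, concentration required for 50% inhibition of growth.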 Calls of active or inactive are those of the source. No stated cut-off is given here; in the data, active = GI50 up to about 1.1 µM and inactive = higher.

`CCn1cc(C(=O)O)c(=O)c2cc(F)c(N3CCNCC3)nc21` [ENOXACIN]: the GI50 in the test on COLO 205 was > 100 µM (inactive); with HCT-15, above 100 µM; with HOP-62 it was > 100 µM (inactive); with HOP-92 it was 32.8 µM (inactive); with HT-29, > 100 µM (inactive); in the test with K562, 63.5 µM (inactive). Further, the GI50 with KM12 was 79.3 µM (inactive); with LXFL 529, > 100 µM (inactive); in the test on NCI-H23 it was 31.1 µM (inactive); in the test on NCI-H460 it was > 100 µM (inactive); in the test with SF-268 it was > 100 µM (inactive); in the test on SK-MEL-2 it was > 100 µM (inactive). The GI50 in the test with SK-MEL-5 is 87.5 µM (inactive); in the test on SK-OV-3, > 100 µM (inactive); in the test on SN12C, 68.7 µM (inactive); in the test on SR, 77.8 µM (inactive); with SW-620, > 100 µM (inactive); in the test with UACC-62, > 100 µM (inactive).
On to `O=C1c2ccccc2S[C@@H](O)[C@@H]2CCCN12`, for which the GI50 was > 100 µM (inactive) in the test with COLO 205; above 100 µM in the test with HCT-15; > 100 µM (inactive) in the test with HOP-62; > 100 µM (inactive) with HOP-92; > 100 µM (inactive) with K562; > 100 µM (inactive) in the test on KM12. Besides, the GI50 with LXFL 529, in the test with NCI-H23, with NCI-H460, in the test with SF-268, in the test on SK-MEL-2 and in the test with SK-MEL-5 was > 100 µM (inactive) in each case. Moreover, the GI50 was 35.2 µM (inactive) in the test on SK-OV-3; > 100 µM (inactive) with SN12C; > 100 µM (inactive) with SR; > 100 µM (inactive) in the test with SW-620; 47.9 µM (inactive) in the test with UACC-62.
As to `Cc1ccc(C2=[N+]([O-])c3ccccc3C2=O)cc1`, the GI50 in the test on COLO 205 is 28.9 µM (inactive); in the test with HCT-15 it was 16.5 µM; in the test with HOP-62, > 100 µM (inactive); in the test on HOP-92, 9.23 µM (inactive); with HT-29, 26.3 µM (inactive); with K562 it was 16.1 µM (inactive). Also, the GI50 was 17 µM (inactive) in the test on KM12; 8.49 µM (inactive) with LXFL 529; 19.2 µM (inactive) in the test with NCI-H23; 36.3 µM (inactive) in the test with NCI-H460; 35.1 µM (inactive) with SF-268; > 46.8 µM (inactive) in the test on SK-MEL-2. The GI50 is 13.6 µM (inactive) in the test with SK-MEL-5; > 100 µM (inactive) with SK-OV-3; 19.7 µM (inactive) in the test with SN12C; 36.1 µM (inactive) in the test with SR; 36.4 µM (inactive) in the test with SW-620; 17.5 µM (inactive) with UACC-62.
With `COc1cc2c(c(OC(C)=O)c1OC(C)=O)-c1ccc(SC)c(=O)cc1C(NC(C)=O)CC2` (configuration not stated), the GI50 was 0.998 µM (active) with COLO 205; 31.7 µM in the test with HCT-15; 7.59 µM (inactive) with HOP-62; 0.741 µM (active) in the test with HOP-92; 2.04 µM (inactive) in the test on HT-29; 0.483 µM (active) with K562. Besides, the GI50 with KM12 is 0.544 µM (active); in the test on LXFL 529, 0.955 µM (active); in the test on NCI-H23 it was 1.92 µM (inactive); in the test with NCI-H460, 3.15 µM (inactive); in the test with SF-268, 1.38 µM (inactive); in the test on SK-MEL-2, 0.565 µM (active). Moreover, the GI50 in the test with SK-MEL-5 was 0.631 µM (active); in the test with SK-OV-3, > 19.5 µM (inactive); in the test with SN12C, 4.52 µM (inactive); in the test on SR it was 0.964 µM (active); in the test with SW-620, 0.951 µM (active); in the test on UACC-62, 1.12 µM (inactive).
With `COC(=O)C1=CNC(C(=O)OC)=NN1`, the GI50 in the test on COLO 205 was > 100 µM (inactive); with HCT-15, above 100 µM; in the test on HOP-62, > 100 µM (inactive); in the test with HOP-92, > 100 µM (inactive); with HT-29, > 100 µM (inactive); in the test with K562, > 100 µM (inactive). Besides, the GI50 in the test on KM12, in the test on LXFL 529, in the test on NCI-H23, with NCI-H460, in the test with SF-268 and with SK-MEL-2 was > 100 µM (inactive) in each case. Further, the GI50 in the test with SK-MEL-5, with SK-OV-3, in the test on SN12C, with SR, in the test on SW-620 and in the test with UACC-62 was > 100 µM (inactive) in each case.
`CC(C)C(Sc1nc(-c2ccccc2)c(-c2ccccc2)[nH]1)C(=O)NNC(=S)Nc1ccccc1` (configuration not stated): the GI50 in the test on COLO 205 was 18.5 µM (inactive); in the test with HCT-15 it was 17.9 µM; in the test with HOP-62, 24.1 µM (inactive); in the test with HOP-92, 15.2 µM (inactive); in the test on HT-29, 17.7 µM (inactive); in the test with KM12, 14.7 µM (inactive). In addition, the GI50 with LXFL 529 was 15.5 µM (inactive); with NCI-H23, 14.8 µM (inactive); in the test on NCI-H460, 17.1 µM (inactive); in the test with SF-268, 24.5 µM (inactive); in the test on SK-MEL-2 it was 19.2 µM (inactive); in the test on SK-MEL-5 it was 12.8 µM (inactive). Besides, the GI50 in the test on SK-OV-3 was 21.5 µM (inactive); in the test with SN12C, 17.5 µM (inactive); in the test on SR, 5.61 µM (inactive); with SW-620, 15.3 µM (inactive); in the test with UACC-62, 0.857 µM (active).
Consider `CCN(CC)C(=O)c1c(N2CCOCC2)cc(N(CC)CC)oc1=O`, for which the GI50 with COLO 205 was > 100 µM (inactive); in the test with HCT-15 it was above 100 µM; with HOP-62, > 100 µM (inactive); in the test with HOP-92 it was > 100 µM (inactive); in the test with HT-29, > 100 µM (inactive); in the test on K562 it was > 100 µM (inactive). For the same molecule, the GI50 with KM12, in the test on LXFL 529, in the test with NCI-H23, with NCI-H460, in the test with SF-268 and in the test on SK-MEL-2 was > 100 µM (inactive) throughout. For the same molecule, the GI50 with SK-OV-3, in the test on SN12C, with SR, in the test with SW-620 and in the test with UACC-62 was > 100 µM (inactive) in each case.
Consider `CS(=O)(=O)OCCCCOS(C)(=O)=O` [BUSULFAN], for which the GI50 was 222 µM (inactive) in the test with COLO 205; 219 µM with HCT-15; 187 µM (inactive) with HOP-62; 198 µM (inactive) in the test with HOP-92; 247 µM (inactive) in the test with HT-29; 201 µM (inactive) in the test on K562. The GI50 is > 250 µM (inactive) in the test on KM12; > 250 µM (inactive) in the test with LXFL 529; > 1000 µM (inactive) in the test with MDA-MB-231; 230 µM (inactive) with NCI-H23; 95.9 µM (inactive) in the test with NCI-H460; 179 µM (inactive) with SF-268. For the same molecule, the GI50 with SK-MEL-2 was 248 µM (inactive); with SK-MEL-5, 232 µM (inactive); in the test with SK-OV-3, > 237 µM (inactive); in the test with SN12C, 233 µM (inactive); in the test on SR it was 87.9 µM (inactive); with SW-620, 224 µM (inactive). Further, the figures for the GI50 in the test with T47D and in the test on UACC-62 were > 250 µM (inactive) and 187 µM (inactive), respectively.
Consider `Cc1cc(NS(=O)(=O)c2ccc(NC(=O)c3cccc4c(Nc5ccc(S(=O)(=O)N=C(N)N)cc5)c5ccccc5nc34)cc2)no1`, for which the GI50 in the test on COLO 205 was > 100 µM (inactive); in the test on HCT-15, above 100 µM; in the test with HOP-62 it was > 100 µM (inactive); in the test with HOP-92, > 100 µM (inactive); in the test on HT-29, > 100 µM (inactive); with K562, > 100 µM (inactive). Besides, the GI50 with KM12, with LXFL 529, with NCI-H23, with NCI-H460, in the test with SF-268 and in the test on SK-MEL-5 was > 100 µM (inactive) throughout. Also, the GI50 in the test on SK-OV-3, in the test with SN12C, with SR, in the test on SW-620 and in the test on UACC-62 was > 100 µM (inactive) in each case.
Regarding `C/C(=N\NC(=S)N(C)C)c1ncc[nH]1`, the GI50 in the test with HCT-15 was 3.77 µM; in the test on HOP-92 it was 2.47 µM (inactive); with HT-29, 5.73 µM (inactive); in the test with K562, 2.59 µM (inactive); in the test with KM12, 5.21 µM (inactive); in the test on LXFL 529, 2.98 µM (inactive). Besides, the GI50 with NCI-H23 is 2.1 µM (inactive); in the test with NCI-H460 it was 3.24 µM (inactive); in the test on SF-268, 3.56 µM (inactive); with SK-MEL-2 it was 3.69 µM (inactive); in the test on SK-MEL-5, 4.46 µM (inactive); in the test with SK-OV-3, 3.87 µM (inactive). For the same molecule, the GI50 with SN12C is 3.95 µM (inactive); with SR it was 2.81 µM (inactive); with SW-620, 4.59 µM (inactive); in the test on UACC-62 it was 2.51 µM (inactive).
As for `O=[N+]([O-])c1cc(C2SCc3nc4ccccc4n32)ccc1Cl` (configuration not stated), the GI50 with COLO 205 was 22.1 µM (inactive); in the test with HOP-92 it was 25.1 µM (inactive); in the test on HT-29, 30.8 µM (inactive); with K562, 17.1 µM (inactive); in the test with KM12, 16.7 µM (inactive); in the test with LXFL 529, 23.1 µM (inactive). Besides, the GI50 in the test on NCI-H23 is 16.1 µM (inactive); with NCI-H460, 31.8 µM (inactive); in the test on SF-268, 20.7 µM (inactive); in the test with SK-MEL-2, 21.2 µM (inactive); in the test on SK-MEL-5, 15 µM (inactive); in the test with SK-OV-3 it was 28.1 µM (inactive). Moreover, the GI50 was 12 µM (inactive) in the test with SN12C, 30.2 µM (inactive) with SR, 41 µM (inactive) in the test on SW-620 and 18.6 µM (inactive) with UACC-62.

Values taken from ChEMBL document CHEMBL1201862, “PubChem BioAssay data set” (2004).
